IC50 data for 63 compounds are collected here from patent publication US12528816B2, “Substituted imidazo [1,2-b] pyridazines and [1, 2, 4] triazolo [ 4,3-b] pyridazines as camkii inhibitors” (Cardurion Pharmaceuticals, INC., priority 2020, dated 2026).

The structures appear in SMILES notation.

The assay addresses T1, human CaMKIIδ (Homo sapiens, UniProt Q13557).
T1 construct: Full-length, glutathione-S-transferase(GST)-tagged, human CaMKIIδ was purchased from Carna Biosciences; purchased Carna Biosciences (CaMKIIδ); Wako Pure Chemical Industries (calmodulin) 02-111
The assay can be described thus: Evaluation of in vitro CaMKII inhibitory activity (binding assay, TR-FRET). To be noted: human CaMKIIδ, TR-FRET binding assay; class symbols A/B/C; read-out: Act (CaMKII inhibitory activity, binding assay). An outline of the steps: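 Inhibitors, in eight concentrations of 4-fold dilution, were incubated 1 h at room temperature with a protein–fluorescent probe premix preformed 30 min on ice, containing calmodulin and terbium anti-GST antibody. Displacement read by TR-FRET in duplicate; IC50 by logistic fitting.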
In general terms: TR-FRET usually uses a lanthanide donor and a delayed reading to cut background.
As to `C[C@@H](Cn1cnnn1)Oc1cc(-c2ccn3ncc(-c4cncnc4)c3n2)ccc1F` [compound 22], the IC50 is less than 10 nM. Turning to `C[C@@H](Cn1cnnn1)Oc1cc(-c2ccn3ncc(-c4cnn(C)c4)c3n2)ccc1F` [compound 23], the IC50 is less than 10 nM. Regarding `C[C@@H](Cn1cnnn1)Oc1cc(-c2ccn3ncc(-c4ccnn4C)c3n2)ccc1F` [compound 24], the IC50 is 10 to 100 nM. For the compound `C[C@@H](Cn1cnnn1)Oc1cc(-c2ccn3ncc(-c4ccn(C)n4)c3n2)ccc1F` [compound 25], the IC50 was less than 10 nM. As for `C[C@@H](Cn1cnnn1)Oc1cc(-c2ccn3ncc(-c4ccsc4)c3n2)ccc1F` [compound 26], the IC50 was less than 10 nM. Turning to `C[C@@H](Cn1cnnn1)Oc1cc(-c2ccn3ncc(-c4cncs4)c3n2)ccc1F` [compound 27], the IC50 is less than 10 nM. Take `C[C@@H](Cn1cnnn1)Oc1cc(-c2ccn3ncc(-c4ccccc4C#N)c3n2)ccc1F` [compound 28]: the IC50 was less than 10 nM. The figure for `C[C@@H](Cn1cnnn1)Oc1cc(-c2ccn3ncc(-c4cccc(C#N)c4)c3n2)ccc1F` [compound 29] is less than 10 nM; for `COc1ccc(-c2cnn3ccc(-c4ccc(F)c(O[C@@H](C)Cn5cnnn5)c4)nc23)cc1` [compound 30] it is less than 10 nM.

As for `COc1ccccc1-c1cnn2ccc(-c3ccc(F)c(O[C@@H](C)Cn4cnnn4)c3)nc12` [compound 31], the IC50 was less than 10 nM. For the compound `COc1cccc(-c2cnn3ccc(-c4ccc(F)c(O[C@@H](C)Cn5cnnn5)c4)nc23)c1` [compound 32], the IC50 was less than 10 nM. The figure for `C[C@@H](Cn1cnnn1)Oc1cc(-c2ccn3ncc(-c4cccc(OCC#N)c4)c3n2)ccc1F` [compound 33] is less than 10 nM; for `CNC(=O)c1ccccc1-c1cnn2ccc(-c3ccc(F)c(O[C@@H](C)Cn4cnnn4)c3)nc12` [compound 34] it is greater than 100 nM; for `CNC(=O)c1cccc(-c2cnn3ccc(-c4ccc(F)c(O[C@@H](C)Cn5cnnn5)c4)nc23)c1` [compound 35] it is less than 10 nM.

For the compound `CC(=O)Nc1cccc(-c2cnn3ccc(-c4ccc(F)c(O[C@@H](C)Cn5cnnn5)c4)nc23)c1` [compound 36], the IC50 was less than 10 nM. `CNC(=O)c1ccc(-c2cnn3ccc(-c4ccc(F)c(O[C@@H](C)Cn5cnnn5)c4)nc23)cc1` [compound 37]: the IC50 was less than 10 nM. In the case of `CC(=O)Nc1ccc(-c2cnn3ccc(-c4ccc(F)c(O[C@@H](C)Cn5cnnn5)c4)nc23)cc1` [compound 38], the IC50 is less than 10 nM. The figure for `CC(=O)Nc1ccccc1-c1cnn2ccc(-c3ccc(F)c(O[C@@H](C)Cn4cnnn4)c3)nc12` [compound 39] is greater than 100 nM.

`C[C@@H](Cn1cnnn1)Oc1cc(-c2ccn3ncc(-c4cccc(CN(C)C)c4)c3n2)ccc1F` [compound 40]: the IC50 was less than 10 nM. For `C[C@@H](Cn1cnnn1)Oc1cc(-c2ccn3ncc(-c4ccc(CN(C)C)cc4)c3n2)ccc1F` [compound 41], the IC50 was less than 10 nM.

For `CC(=O)N1CCN(c2ccc(-c3cnn4ccc(-c5ccc(F)c(O[C@@H](C)Cn6cnnn6)c5)nc34)cc2)CC1` [compound 42], the IC50 fell in the range of 10 to 100 nM. As for `COCCOc1ccccc1-c1cnn2ccc(-c3ccc(F)c(O[C@@H](C)Cn4cnnn4)c3)nc12` [compound 43], the IC50 was less than 10 nM.

With `COCCOc1ccc(-c2cnn3ccc(-c4ccc(F)c(O[C@@H](C)Cn5cnnn5)c4)nc23)cc1` [compound 44], the IC50 is 10 to 100 nM.

As for `C[C@@H](Cn1cnnn1)Oc1cc(-c2ccn3ncc(-c4ccccc4OC(F)(F)F)c3n2)ccc1F` [compound 45], the IC50 was 10 to 100 nM. In the case of `C[C@@H](Cn1cnnn1)Oc1cc(-c2ccn3ncc(-c4cccc(OC(F)(F)F)c4)c3n2)ccc1F` [compound 46], the IC50 is 10 to 100 nM. For `C[C@@H](Cn1cnnn1)Oc1cc(-c2ccn3ncc(-c4cccc(N5CCOCC5)c4)c3n2)ccc1F` [compound 47], the IC50 fell in the range of 10 to 100 nM. `C[C@@H](Cn1cnnn1)Oc1cc(-c2ccn3ncc(-c4ccccc4N4CCOCC4)c3n2)ccc1F` [compound 48]: the IC50 was in the range of 10 to 100 nM. With `C[C@@H](Cn1cnnn1)Oc1cc(-c2ccn3ncc(-c4ccc(N5CCOCC5)cc4)c3n2)ccc1F` [compound 49], the IC50 is 10 to 100 nM.

Take `C[C@@H](Cn1cnnn1)Oc1cc(-c2ccn3ncc(-c4cccc(F)c4)c3n2)ccc1F` [compound 50]: the IC50 is less than 10 nM. For `C[C@@H](Cn1cnnn1)Oc1cc(-c2ccn3ncc(-c4ccc(F)cc4)c3n2)ccc1F` [compound 51], the IC50 was less than 10 nM. `C[C@@H](Cn1cnnn1)Oc1cc(-c2ccn3ncc(-c4ccccc4F)c3n2)ccc1F` [compound 52]: the IC50 is less than 10 nM.

`CC(C)c1ccc(-c2cnn3ccc(-c4ccc(F)c(O[C@@H](C)Cn5cnnn5)c4)nc23)cc1` [compound 53]: the IC50 is greater than 100 nM. Regarding `C[C@@H](Cn1cnnn1)Oc1cc(-c2ccn3ncc(-c4cccc(OCC5CC5)c4)c3n2)ccc1F` [compound 54], the IC50 lay within 10 to 100 nM. Regarding `C[C@@H](Cn1cnnn1)Oc1cc(-c2ccn3ncc(-c4ccccc4N4CCNCC4)c3n2)ccc1F` [compound 55], the IC50 is greater than 100 nM. For the compound `C[C@@H](Cn1cnnn1)Oc1cc(-c2ccn3ncc(-c4ccc(N5CCNCC5)cc4)c3n2)ccc1F` [compound 56], the IC50 is less than 10 nM. Turning to `C[C@@H](Cn1nnc(N)n1)Oc1cccc(-c2ccn3ncc(-c4cccs4)c3n2)c1` [compound 58], the IC50 is greater than 100 nM. Under `C[C@@H](Cn1nnnc1N)Oc1cccc(-c2ccn3ncc(-c4cccs4)c3n2)c1` [compound 59] stands less than 10 nM; under `C[C@@H](Cn1cnnn1)Oc1cc(-c2ccc3ncc(-c4cccs4)n3n2)ccc1F` [compound 60], less than 10 nM; under `C[C@@H](Cn1cnnn1)Oc1cc(-c2ccc3ncn(-c4cccc(C(=O)O)c4)c3n2)ccc1F` [compound 62], 10 to 100 nM.

Turning to `C[C@@H](Cn1cnnn1)Oc1cccc(-c2ccn3ncc(-c4cccc(C(=O)NCC5CC5)c4)c3n2)c1` [compound 63], the IC50 is less than 10 nM. On to `CC(C)CCNC(=O)c1cccc(-c2cnn3ccc(-c4cccc(O[C@@H](C)Cn5cnnn5)c4)nc23)c1` [compound 64], for which the IC50 is less than 10 nM. `C[C@@H](Cn1cnnn1)Oc1cccc(-c2ccn3ncc(-c4cccc(C(=O)Nc5cn[nH]c5)c4)c3n2)c1` [compound 65]: the IC50 is less than 10 nM. As for `C[C@@H](Cn1cnnn1)Oc1cccc(-c2ccn3ncc(-c4cccc(C(=O)NCCCN5CC(O)C5)c4)c3n2)c1` [compound 66], the IC50 is less than 10 nM. As to `C[C@@H](Cn1cnnn1)Oc1cccc(-c2ccn3ncc(-c4cccc(C(=O)NCCN5CCOCC5)c4)c3n2)c1` [compound 67], the IC50 was less than 10 nM. In the case of `CCN(CC)C(=O)CNC(=O)c1cccc(-c2cnn3ccc(-c4cccc(O[C@@H](C)Cn5cnnn5)c4)nc23)c1` [compound 68], the IC50 is less than 10 nM. Under `CCN(CC)CCCNC(=O)c1cccc(-c2cnn3ccc(-c4cccc(O[C@@H](C)Cn5cnnn5)c4)nc23)c1` [compound 69] stands less than 10 nM. Turning to `C[C@@H](Cn1cnnn1)Oc1cccc(-c2ccn3ncc(-c4cccc(C(=O)NC5CN(C)C5)c4)c3n2)c1` [compound 70], the IC50 was less than 10 nM. Under `C[C@@H](Cn1cnnn1)Oc1cccc(-c2ccn3ncc(-c4cccc(C(=O)N5CCOCC5)c4)c3n2)c1` [compound 71] stands 10 to 100 nM. Take `C[C@@H](Cn1cnnn1)Oc1cccc(-c2ccn3ncc(-c4cccc(C(=O)NCC(C)(C)C)c4)c3n2)c1` [compound 72]: the IC50 was less than 10 nM. `CC(=O)NC1CCN(C(=O)c2cccc(-c3cnn4ccc(-c5cccc(O[C@@H](C)Cn6cnnn6)c5)nc34)c2)CC1` [compound 73]: the IC50 fell in the range of 10 to 100 nM.

Regarding `C[C@@H](Cn1cnnn1)Oc1cccc(-c2ccn3ncc(-c4cccc(C(=O)NCCCN5CCCC5=O)c4)c3n2)c1` [compound 74], the IC50 was less than 10 nM. For `CC(=O)N1CCC(NC(=O)c2cccc(-c3cnn4ccc(-c5cccc(O[C@@H](C)Cn6cnnn6)c5)nc34)c2)CC1` [compound 75], the IC50 is less than 10 nM. The figure for `C[C@@H](Cn1cnnn1)Oc1cccc(-c2ccn3ncc(-c4cccc(C(=O)NCCC5CCN(C)CC5)c4)c3n2)c1` [compound 76] is less than 10 nM; for `CNC(=O)CNC(=O)c1cccc(-c2cnn3ccc(-c4cccc(O[C@@H](C)Cn5cnnn5)c4)nc23)c1` [compound 77] it is less than 10 nM. As to `C[C@@H](Cn1cnnn1)Oc1cccc(-c2ccn3ncc(-c4cccc(C(=O)NCCCN5CCOCC5)c4)c3n2)c1` [compound 78], the IC50 was less than 10 nM.

Consider `C[C@@H](Cn1cnnn1)Oc1cccc(-c2ccn3ncc(-c4cccc(C(=O)NCCCCO)c4)c3n2)c1` [compound 79], for which the IC50 is less than 10 nM. For the compound `C[C@@H](Cn1cnnn1)Oc1cccc(-c2ccn3ncc(-c4cccc(C(=O)NCC(C)(C)O)c4)c3n2)c1` [compound 80], the IC50 is less than 10 nM. Under `C[C@@H](Cn1cnnn1)Oc1cccc(-c2ccn3ncc(-c4cccc(C(=O)Nc5ccccc5)c4)c3n2)c1` [compound 81] stands 10 to 100 nM; under `C[C@@H](Cn1cnnn1)Oc1cccc(-c2ccn3ncc(-c4cccc(C(=O)Nc5ccncc5)c4)c3n2)c1` [compound 82], less than 10 nM. As to `C[C@@H](Cn1cnnn1)Oc1cccc(-c2ccn3ncc(-c4cccc(C(=O)Nc5ccccn5)c4)c3n2)c1` [compound 83], the IC50 is less than 10 nM. As for `C[C@@H](Cn1cnnn1)Oc1cccc(-c2ccn3ncc(-c4cccc(C(=O)Nc5cccnc5)c4)c3n2)c1` [compound 84], the IC50 was less than 10 nM. `C[C@@H](Cn1cnnn1)Oc1cccc(-c2ccn3ncc(-c4cccc(C(=O)Nc5cnn(C)c5)c4)c3n2)c1` [compound 85]: the IC50 is less than 10 nM. Regarding `C[C@@H](Cn1cnnn1)Oc1cccc(-c2ccn3ncc(-c4cccc(C(=O)NC5CN(Cc6ccccc6)C5)c4)c3n2)c1` [compound 86], the IC50 was less than 10 nM.
